Experimental data reported in ChEMBL document CHEMBL3507680, “University of Dundee, Gates Library screen for HepG2 cell viability”.

Assay: Human HepG2 cell viability assay in 384 well format
Format: toxicity, cell-based
Set-up: dose 125 nL, time 70.5 hour; concentration not given beside the values
Details: HepG2 cells, read-out: Inhibition

Row | Compound | cytotoxicity at 70.5 h [%]
1 | CS(=O)(=O)NC[C@@H]1OC[C@H]2CN(C(=O)c3cnccn3)CC[C@H]21 | -1.54
2 | Cn1cnc(S(=O)(=O)N2CCCn3cnc(CN4CCCC4)c3C2)c1 | -3.74
3 | COCC1CC2(CCNCC2)CN1c1ncccn1 (stereo not given) | 2.77
4 | Cc1cncc(C(=O)NCC2COCc3c(C)nnn3C2)c1 (stereo not given) | 0.75
5 | O=C(C1CCOCC1)N1CCC2(CC1)CC(Oc1ccccc1)CO2 (stereo not given) | 3.04
6 | CN(C)C(=O)N1Cc2nnn(C)c2C(COCC2CC2)C1 (stereo not given) | -6.79
7 | Cn1cc(CN2CC3(CCN(C(=O)c4cscn4)C3)C2)cn1 | -7.98
8 | CCNC(=O)c1ncn2c1CN(C)S(=O)(=O)c1ccccc1-2 | -8.36
9 | Cc1ccc2c(c1)C1(CC2)CCN(c2nncs2)CC1 | -4.57
10 | Fc1cnc(N2CCC3(COCc4cnc(NCC5CC5)nc43)C2)nc1 (stereo not given) | -6.29
11 | Cn1cc(CN2CCC3(CCCN(Cc4ccccn4)C3)CC2)cn1 | -5.87
12 | Cc1ccc(CS(=O)(=O)N2CC[C@H]3[C@H]2CCN3C)cc1 | -5.67
13 | Cn1cc(C(=O)NC[C@@H]2OC[C@H]3CN(S(C)(=O)=O)CC[C@H]32)cn1 | -3.04
14 | c1nc2c(c(C3CC3)n1)CCN(Cc1ccoc1)CC2 | 18.1
15 | COCC1COCCC12CCN(C(=O)CCc1ccccc1)CC2 (stereo not given) | 5.59
16 | CCC(=O)N1CCC(c2nc3ccc(NC(C)C)cn3n2)CC1 | 4.46
17 | C[C@@H]1C[C@@H]2CCN(C(=O)c3cnccn3)C[C@H]2O1 | -0.399
18 | CCn1nnc2c1C(COC)CN(C(=O)Cc1cccs1)C2 (stereo not given) | -7.34
19 | c1cnc(N2C[C@H]3CCN(c4cccnc4)C[C@H]3C2)nc1 | -6.6
20 | COCCO[C@@H]1CCN(C(=O)c2ccc(C)o2)[C@@H]1Cc1cnn(C)c1 | -2.12
21 | Cc1noc([C@H]2CC[C@@H]3[C@@H](CCN3S(C)(=O)=O)O2)n1 | 1.24
22 | Cc1cccc(CN2CC[C@@H]3[C@@H]2CCN3C(=O)c2cnoc2C)n1 | 0.0209
23 | CC(C)NC(=O)N1CCN(C(=O)N(C)C)CC2(CC(=O)N(C)C2)C1 (stereo not given) | -6.79
24 | O=C(N1CCCC1)N1CCc2c(CNc3ncccn3)cncc2C1 | -1.33
25 | COCCC(=O)N1CCc2c(CNc3ncccn3)cncc2C1 | -1.53

Row | Compound | cytotoxicity at 70.5 h [%]
26 | CC(C)N1CCOCC2(CCCN(C(=O)c3cn(C)cn3)C2)C1 (stereo not given) | 0.0869
27 | O=C(NCc1ccco1)[C@@]12CCO[C@@H]1CCN(c1ncccn1)C2 | -2.22
28 | O=C(NCc1ccco1)[C@@]12CCO[C@@H]1CCN(CC1CCOCC1)C2 | -1.64
29 | Cc1ccc(CNC(=O)c2nc3c(o2)CN(C(=O)c2cccnc2)C3)o1 | -1.67
30 | O=C(NC1CCC1)[C@@H]1CCO[C@@H]2CCN(C3CCCC3)C[C@H]21 | -3.8
31 | O=C(NCc1ccco1)[C@@]12CCO[C@@H]1CCN(C1CCC1)C2 | 2.1
32 | COc1ccc(CC(=O)N2CCN(C)c3ncccc3C2)cc1 | 11.6
33 | Fc1ccccc1CN1C[C@H](OCC2CCOCC2)[C@H]2OCCC[C@H]21 | 17.2
34 | O=C(COC[C@H]1CC[C@H]2[C@H](CCN2c2ncccn2)O1)N1CCCC1 | -3.63
35 | CN(C)c1ncc2c(n1)C1(CCN(Cc3ccccc3)C1)COC2 (stereo not given) | -5.25
36 | Cn1cc(N2CC3(CCN(Cc4cccs4)CC3)OCC2=O)cn1 | -4.87
37 | Cc1ccccc1CN1CCC2(COCc3cnc(N(C)C)nc32)C1 (stereo not given) | 0.683
38 | O=C1NC2(CCN(C(=O)c3ccccc3)CC2)CC1c1cccnc1 (stereo not given) | 2.71
39 | Cc1ccc(CN2Cc3c(C(=O)N(C)C)nn(C)c3C2)s1 | -3.13
40 | CCn1ncc2c1C(COCC1CC1)CN(S(=O)(=O)N(C)C)C2 (stereo not given) | -7.75
41 | Cc1nc(CN2C(=O)COC3(CCN(Cc4nccs4)CC3)C2C)cs1 (stereo not given) | -6.92
42 | O=C(Cc1cccs1)N1C[C@@H]2OCCN(CC3CCCO3)[C@@H]2C1 (stereo not given in full) | -1.51
43 | Cc1cccc(CN2CCc3ncnc(N4CCOCC4)c3CC2)n1 | -1.5
44 | Cn1ccc(C(=O)NC2CCC23CCN(C(=O)c2ccncc2)CC3)c1 (stereo not given) | -6.03
45 | Cc1cccc(-c2ccc3nc(C4CCN(CC5CC5)CC4)nn3c2)c1 | 0.0128
46 | Cc1nc(CN2C[C@@H]3CN(C(=O)c4cnccn4)C[C@@H]3C2)cs1 | -11.6
47 | Cc1nc(CN2C(=O)C[C@H]3[C@H]2CCN3C2CCOCC2)cs1 | -2.79
48 | CN1Cc2c(C(=O)Nc3cccnc3)ncn2-c2ccccc2S1(=O)=O | -8.44
49 | O=C(c1cnoc1)N1CCC[C@]2(C[C@H](Oc3ncccc3F)CO2)C1 | -3.55
50 | CCN1CCC2(COCc3cnc(NCC4CC4)nc32)C1 (stereo not given) | -4.64

Row | Compound | cytotoxicity at 70.5 h [%]
51 | O=C(c1cnoc1)N1CCC[C@]2(C[C@@H](OCc3ccccn3)CO2)C1 | -9.96
52 | COC[C@@]12CCO[C@@H]1CCN(Cc1ccccc1F)C2 | -9.38
53 | O=C(NCc1cn2c(n1)CN(CC1CCOCC1)CC2)C1CCC1 | -2.34
54 | O=C(CO[C@@H]1CC[C@H]2[C@H]1OCCN2CC1CCOCC1)N1CCCC1 | -0.662
55 | CCN1CC2(CC1=O)CN(Cc1cnn(C)c1)CCN(C(=O)C(C)C)C2 (stereo not given) | -4.6
56 | CCc1ccc(CN2CCC3(CC2)CNC(=O)CO3)o1 | -3.42
57 | Cc1cccc(CN2C(=O)CO[C@@H]3CN(Cc4nccn4C)C[C@H]32)c1 | -3.81
58 | Cc1cccc(CN2C(=O)CO[C@@H]3CN(CCO)C[C@H]32)c1 | -3.53
59 | CC(C)Nc1ccc2nc(C3CCN(C(C)C)CC3)nn2c1 | -2.64
60 | O=C(Nc1cnccn1)[C@H]1COC[C@H]2CN(C3CCCC3)C[C@H]21 | -2.04
61 | Cn1ccnc1CN1CCN2C[C@H](Oc3cncnc3)C[C@H]2C1 | 0.558
62 | O=C(NCc1ccco1)[C@@]12CCO[C@@H]1CCN(Cc1ccccn1)C2 | -3.48
63 | O=C(NCCN1CCCC1)c1nc2c(o1)CN(C(=O)c1cccnc1)C2 | -1.83
64 | CN1CCCN(C(=O)c2nc3c(o2)CN(C(=O)c2cccnc2)C3)CC1 | -1.59
65 | Cc1cc(C(=O)N2CCCC3(COCCN(CCN(C)C)C3)C2)no1 (stereo not given) | 1.65
66 | COc1ccc(CN2CCC3(CC2)CN(c2ccccn2)CCO3)cc1 | 2.33
67 | O=C1[C@H]2CN(Cc3ccncc3)C[C@H]2CN1c1cncnc1 | -0.121
68 | CN1CC(=O)N(c2cnn(C)c2)CC12CCN(Cc1nccn1C)C2 (stereo not given) | -4.58
69 | O=c1ccc2c(n1CCN1CCCC1)CCN(Cc1ccoc1)CC2 | -5.75
70 | CCOCC1CN(C)Cc2cnn(CC3CCCC3)c21 (stereo not given) | -5.11
71 | c1cnc(NCc2ncn3c2CN(Cc2cccnc2)CCC3)nc1 | -2.74
72 | Cn1cc(C(=O)NCc2cn3c(n2)CN(Cc2ccccn2)CC3)cn1 | -1.02
73 | Cc1cccc(CN2CC[C@@H]3[C@@H]2CCN3C(=O)c2ccno2)n1 | -4.67
74 | CN(C)C(=O)COC[C@H]1CC[C@@H]2[C@@H](CCN2Cc2ccccn2)O1 | -7.44
75 | COCC1CC2(CCN(Cc3ccccn3)CC2)CN1c1ncccn1 (stereo not given) | 0.787
